From patent publication US20100069249A1, “HERBICIDE COMBINATION COMPRISING DIMETHOXYTRIAZINYL-SUBSTITUTED DIFLUOROMETHANESULFONYLANILIDES” (BAYER CROPSCIENCE AG, priority 2008, published 2010) come the findings set out here.

Common to all, as to assay: Post-emergence action against weeds, greenhouse pot test
Assay type in all cases: in vivo

Test [1] has as its system Triticum aestivum (TRZAS). The protocol:
(§1) Seeds or rhizome pieces of mono- and dicotyledonous harmful and useful plants were placed in peat pots (diameter 4 cm) filled with sandy loam and then covered with soil. The pots were kept in a greenhouse under optimum conditions. In addition, harmful plants encountered in paddy rice cultivation were cultivated in pots with a water level 2 cm above the soil surface.
(§2) About three weeks after the start of the cultivation, the test plants were treated at the 2- to 3-leaf stage. The herbicides, formulated as powder or liquid concentrates, were, either alone or in the combinations according to the invention, sprayed in various dosages on to the green parts of the plants using an application rate of 600 l of water/ha (converted). For further cultivation of the plants, the pots were then again kept under optimum conditions in a greenhouse.
(§3) The visual scoring of the herbicidal effects was carried out in intervals up to 21 days after the treatment. Scoring was carried out in percent in comparison to the untreated control plants. 0%=no herbicidal activity, 100%=complete herbicidal activity=complete kill.
(§4) The percentages from the treatments with the herbicides alone (=individual application) and with the combinations according to the invention (=mixtures) were employed to calculate interactions using the method of Colby. When the observed efficacies of the mixtures exceed the formal sum of the values of the tests with individual applications, they also exceed the expected value according to Colby, which is calculated using the formula below (cf. S. R. Colby; in Weeds 15 (1967) pp. 20 to 22):
(§5) • A, B=activity of components A and B in percent at a dosage of a and b g of ai/ha (=gram of active substance per hectare), respectively. • E=expected value in % at a dosage of a+b g of ai/ha.

The subject of the next test is Zea mays (ZEAMX). The protocol:
as §1, §2, §3, §4, §5

The test system of another test is Oryza sativa (ORYSA). The protocol:
as §1, §2, §3, §4, §5

A further test deals with Setaria viridis (SETVI). To be noted: 21 DAT; B 50 g of ai/ha. Here is the method:
as §1, §2, §3, §4, §5

The subject of test [2] is Alopecurus myosuroides (ALOMY). To be noted: 21 DAT. The protocol: as §1, §2, §3, §4, §5
A further test deals with Viola tricolor (VIOTR). The note with it: 21 DAT; B 50 g of ai/ha. The protocol:
as §1, §2, §3, §4, §5

Test [3] has as its system Matricaria inodora (MATIN). The note with it: 21 DAT; B 50 g of ai/ha. The protocol:
as §1, §2, §3, §4, §5

Test [4] has as its system Fallopia (ex Polygonum) convolvulus (POLCO). To be noted: 21 DAT; B 50 g of ai/ha. The protocol:
as §1
About three weeks after the start of the cultivation, the test plants were treated at the 2- to 3-leaf stage. The herbicides, formulated as powder or liquid concentrates, were, either alone or in the combinations according to the invention, sprayed in various dosages on to the green parts of the plants using an application rate of 600 l of water/ha (converted). For further cultivation of the plants, the pots were then again kept under optimum conditions in a greenhouse. […]
The percentages from the treatments with the herbicides alone (=individual application) and with the combinations according to the invention (=mixtures) were employed to calculate interactions using the method of Colby. When the observed efficacies of the mixtures exceed the formal sum of the values of the tests with individual applications, they also exceed the expected value according to Colby, which is calculated using the formula below (cf. S. R. Colby; in Weeds 15 (1967) pp. 20 to 22): […]

As to `COc1nc(OC)nc(C(=O)c2cccc(F)c2N(C)S(=O)(=O)C(F)F)n1` [A-1], the “% activity found” value in test [1] (21 DAT, A 12 g of ai/ha) was 0%; in the test with Zea mays (ZEAMX) (21 DAT, A 4 g of ai/ha), 0%; in the test on Oryza sativa (ORYSA) (10/21 DAT, A 4 g of ai/ha), 0%.
Regarding `CP(=O)(O)CC[C@H](N)C(=O)O` [B1-8, (2S)-2-amino-4-[hydroxy(methyl)phosphinyl]butanoic acid], the “% activity found” value in the test with Setaria viridis (SETVI) came to 80%; in test [2] (B 50 g of ai/ha), 0%; in test [2] (B 150 g of ai/ha) it was 20%; with Viola tricolor (VIOTR) it was 40%; in test [1] (10 DAT, B 50 g of ai/ha), 20%; in test [1] (10 DAT, B 150 g of ai/ha) it was 30%. The “% activity found” value in test [1] (21 DAT, B 50 g of ai/ha) stood at 20%; in test [3], 60%; with Zea mays (ZEAMX) (10 DAT, B 50 g of ai/ha), 30%; with Zea mays (ZEAMX) (10 DAT, B 150 g of ai/ha), 40%; in the test on Zea mays (ZEAMX) (21 DAT, B 50 g of ai/ha), 0%; in the test on Zea mays (ZEAMX) (21 DAT, B 150 g of ai/ha), 0%. Moreover, the “% activity found” value with Oryza sativa (ORYSA) (10/21 DAT, B 50 g of ai/ha) is 10%; in the test on Oryza sativa (ORYSA) (10/21 DAT, B 150 g of ai/ha) it was 30%; in the test with Oryza sativa (ORYSA) (21 DAT, B 150 g of ai/ha), 30%; in test [4], 40%.
